In patent US12473304B2, “Heterocyclic PAD4 inhibitors” (BRISTOL-MYERS SQUIBB COMPANY, priority 2020, dated 2025):

Target: human PAD4 (hPAD4) (Homo sapiens (Human), UniProt Q9UM07)
Assay: RFMS Human PAD4 Functional Assay 1
Type: biochemical
Details: RFMS assay 1; 5 nM hPAD4, 250 μM BAEE substrate, 50 μM calcium, 37° C.
How it was run: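 Recombinant hPAD4 (5 nM) was preincubated with compound (top 50 μM, 0.5% DMSO) for 30 min at 37 °C, then reacted with 250 μM BAEE for 90 min at 37 °C in pH 7.5 HEPES buffer with 50 μM calcium and 5 μM TPEN. Product was derivatized with phenyl glyoxal and quantified by RapidFire MS.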

human PAD4 (hPAD4), sequence (Q9UM07 whole entry): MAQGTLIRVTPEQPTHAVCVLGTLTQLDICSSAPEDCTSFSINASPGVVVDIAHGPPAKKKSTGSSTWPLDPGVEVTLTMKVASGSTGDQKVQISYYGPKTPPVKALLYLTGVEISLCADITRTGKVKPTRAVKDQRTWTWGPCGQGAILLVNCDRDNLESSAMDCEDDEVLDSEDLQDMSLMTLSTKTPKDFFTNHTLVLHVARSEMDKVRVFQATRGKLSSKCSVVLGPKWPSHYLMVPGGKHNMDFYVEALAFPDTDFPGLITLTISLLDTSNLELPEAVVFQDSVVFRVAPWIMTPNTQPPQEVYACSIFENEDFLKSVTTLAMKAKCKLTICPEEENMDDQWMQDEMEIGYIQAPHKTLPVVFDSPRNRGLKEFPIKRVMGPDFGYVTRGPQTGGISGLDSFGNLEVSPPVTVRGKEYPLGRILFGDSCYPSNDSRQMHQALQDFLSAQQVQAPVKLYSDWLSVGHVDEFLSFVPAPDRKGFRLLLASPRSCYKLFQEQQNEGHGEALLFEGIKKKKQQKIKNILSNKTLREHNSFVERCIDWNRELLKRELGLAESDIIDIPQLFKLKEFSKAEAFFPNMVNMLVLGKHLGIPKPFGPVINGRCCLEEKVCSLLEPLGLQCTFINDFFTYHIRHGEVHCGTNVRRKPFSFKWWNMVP

Row | SMILES | IC50 [nM]
1 | Cc1c(-c2cc3ccc(-c4ccc(CNS(C)(=O)=O)cc4)cc3n2CC2CC2)nn2cc(C(=O)N3CCC[C@@H](N)C3)ccc12 [Example 342, N-{[4-(2-{6-[(3R)-3-Aminopiperidine-1-carbonyl]-3-methylpyrazolo[1,5-a]pyridin-2-yl}-1-(cyclopropylmethyl)-1H-indol-6-yl)phenyl]methyl}methanesulfonamide] | 930
2 | Cc1c(-c2cc3ccc(-c4cccc(CO)c4)cc3n2CC2CC2)nn2cc(C(=O)N3CCC[C@@H](N)C3)ccc12 [Example 344, [3-(2-{6-[(3R)-3-Aminopiperidine-1-carbonyl]-3-methylpyrazolo[1,5-a]pyridin-2-yl}-1-(cyclopropylmethyl)-1H-indol-6-yl)phenyl]methanol] | 470
3 | Cc1c(-c2cc3ccc(-c4ccc5[nH]ccc5c4)cc3n2CC2CC2)nn2cc(C(=O)N3CCC[C@@H](N)C3)ccc12 [Example 345, (3R)-1-{2-[1′-(Cyclopropylmethyl)-1H,1′H-[5,6′-biindole]-2′-yl]-3-methylpyrazolo[1,5-a]pyridine-6-carbonyl}piperidin-3-amine] | 790
4 | COC(=O)N(C)C1CCN(c2ccc3cc(-c4nn5cc(C(=O)N6C[C@H](N)C[C@@H](F)C6)ccc5c4C)n(CC4CC4)c3c2)CC1 [Example 352, Methyl N-[1-(2-{6-[(3R,5R)-3-amino-5-fluoropiperidine-1-carbonyl]-3-methylpyrazolo[1,5-a]pyridin-2-yl}-1-(cyclopropylmethyl)-1H-indol-6-yl)piperidin-4-yl]-N-methylcarbamate] | 810
5 | CC(=O)N(C)C1CCN(c2ccc3cc(-c4nn5cc(C(=O)N6C[C@H](N)C[C@@H](F)C6)ccc5c4C)n(CC4CC4)c3c2)CC1 [Example 353, N-[1-(2-{6-[(3R,5R)-3-Amino-5-fluoropiperidine-1-carbonyl]-3-methylpyrazolo[1,5-a]pyridin-2-yl}-1-(cyclopropylmethyl)-1H-indol-6-yl)piperidin-4-yl]-N-methylacetamide] | 610
6 | Cc1c(-c2cc3ccc(N4CCC(N5CCCC5=O)CC4)cc3n2CC2CC2)nn2cc(C(=O)N3C[C@H](N)C[C@@H](F)C3)ccc12 [Example 356, 1-[1-(2-{6-[(3R,5R)-3-Amino-5-fluoropiperidine-1-carbonyl]-3-methylpyrazolo[1,5-a]pyridin-2-yl}-1-(cyclopropylmethyl)-1H-indol-6-yl)piperidin-4-yl]pyrrolidin-2-one] | 2780
7 | COC(=O)N(C)C1CCN(c2ccc3cc(-c4nn5cc(C(=O)N6CCC[C@@H](N)C6)ccc5c4C)n(CC4CC4)c3c2)CC1 [Example 358, Methyl N-[1-(2-{6-[(3R)-3-aminopiperidine-1-carbonyl]-3-methylpyrazolo[1,5-a]pyridin-2-yl}-1-(cyclopropylmethyl)-1H-indol-6-yl)piperidin-4-yl]-N-methylcarbamate] | 420
8 | Cc1c(-c2cc3ccc(N4CCC(N(C)S(C)(=O)=O)CC4)cc3n2CC2CC2)nn2cc(C(=O)N3CCC[C@@H](N)C3)ccc12 [Example 360, N-[1-(2-{6-[(3R)-3-Aminopiperidine-1-carbonyl]-3-methylpyrazolo[1,5-a]pyridin-2-yl}-1-(cyclopropylmethyl)-1H-indol-6-yl)piperidin-4-yl]-N-methylmethanesulfonamide] | 450
9 | Cc1c(-c2cc3ccc(N4CCC(N(C)S(C)(=O)=O)CC4)cc3n2CC2CC2)nn2cc(C(=O)N3CCC[C@@H](N)C3)ccc12 [Example 362, N-[1-(2-{6-[(3R)-3-Aminopiperidine-1-carbonyl]-3-methylpyrazolo[1,5-a]pyridin-2-yl}-1-(cyclopropylmethyl)-1H-indol-6-yl)piperidin-4-yl]-N-methylmethanesulfonamide] | 430
10 | Cc1c(-c2cc3ccc(N4CCC(N5CCCC5=O)CC4)cc3n2CC2CC2)nn2cc(C(=O)N3CCC[C@@H](N)C3)ccc12 [Example 363, 1-[1-(2-{6-[(3R)-3-Aminopiperidine-1-carbonyl]-3-methylpyrazolo[1,5-a]pyridin-2-yl}-1-(cyclopropylmethyl)-1H-indol-6-yl)piperidin-4-yl]pyrrolidin-2-one] | 2280
11 | Cc1c(-c2cc3ccc(N4CCC(N5CCOC5=O)CC4)cc3n2CC2CC2)nn2cc(C(=O)N3CCC[C@@H](N)C3)ccc12 [Example 364, 3-[1-(2-{6-[(3R)-3-Aminopiperidine-1-carbonyl]-3-methylpyrazolo[1,5-a]pyridin-2-yl}-1-(cyclopropylmethyl)-1H-indol-6-yl)piperidin-4-yl]-1,3-oxazolidin-2-one] | 1090
12 | Cc1c(-c2cc3ccc(N4CCC(n5cccn5)CC4)cc3n2CC2CC2)nn2cc(C(=O)N3CCC[C@@H](N)C3)ccc12 [Example 365, (3R)-1-{2-[1-(Cyclopropylmethyl)-6-[4-(1H-pyrazol-1-yl)piperidin-1-yl]-1H-indol-2-yl]-3-methylpyrazolo[1,5-a]pyridine-6-carbonyl}piperidin-3-amine] | 720

The next compounds have a lower IC50 than those just listed; values first:

Row | IC50 [nM] | SMILES
13 | 50 | CC(=O)NCc1cccc(-c2ccc3cc(-c4nn5cc(C(=O)N6CCC[C@@H](N)C6)ccc5c4C)n(CC4CC4)c3c2)c1 [Example 343, N-{[3-(2-{6-[(3R)-3-Aminopiperidine-1-carbonyl]-3-methylpyrazolo[1,5-a]pyridin-2-yl}-1-(cyclopropylmethyl)-1H-indol-6-yl)phenyl]methyl}acetamide]
14 | 60 | Cc1c(-c2ccc3cc(-c4nn5cc(C(=O)N6CCC[C@@H](N)C6)ccc5c4C)n(CC4CC4)c3c2)cc(F)c2[nH]c(=O)ccc12 [Example 346, 6-(2-{6-[(3R)-3-Aminopiperidine-1-carbonyl]-3-methylpyrazolo[1,5-a]pyridin-2-yl}-1-(cyclopropylmethyl)-1H-indol-6-yl)-8-fluoro-5-methyl-1,2-dihydroquinolin-2-one]
15 | 290 | Cc1c(-c2cc3ccc(-c4ccc(NS(C)(=O)=O)cc4)cc3n2CC2CC2)nn2cc(C(=O)N3CCC[C@@H](N)C3)ccc12 [Example 347, N-[4-(2-{6-[(3R)-3-Aminopiperidine-1-carbonyl]-3-methylpyrazolo[1,5-a]pyridin-2-yl}-1-(cyclopropylmethyl)-1H-indol-6-yl)phenyl]methanesulfonamide]
16 | 140 | CC(=O)Nc1ccc(-c2ccc3cc(-c4nn5cc(C(=O)N6CCC[C@@H](N)C6)ccc5c4C)n(CC4CC4)c3c2)cn1 [Example 348, N-[5-(2-{6-[(3R)-3-Aminopiperidine-1-carbonyl]-3-methylpyrazolo[1,5-a]pyridin-2-yl}-1-(cyclopropylmethyl)-1H-indol-6-yl)pyridin-2-yl]acetamide]
17 | 100 | Cc1c(-c2cc3ccc(-c4ccn5c(C)nnc5c4)cc3n2CC2CC2)nn2cc(C(=O)N3CCC[C@@H](N)C3)ccc12 [Example 349, (R)-(3-Aminopiperidin-1-yl)(2-(1-(cyclopropylmethyl)-6-(3-methyl-[1,2,4]triazolo[4,3-a]pyridin-7-yl)-1H-indol-2-yl)-3-methylpyrazolo[1,5-a]pyridin-6-yl)methanone]
18 | 30 | Cc1c(-c2cc3ccc(N4CCOCC4)cc3n2CC2CC2)nn2cc(C(=O)N3CC4CCC3[C@@H]4N)ccc12 (stereo partly drawn) [Example 350, (7R)-2-{2-[1-(Cyclopropylmethyl)-6-(morpholin-4-yl)-1H-indol-2-yl]-3-methylpyrazolo[1,5-a]pyridine-6-carbonyl}-2-azabicyclo[2.2.1]heptan-7-amine]
19 | 100 | Cc1c(-c2cc3ccc(N4CCC(S(C)(=O)=O)CC4)cc3n2CC2CC2)nn2cc(C(=O)N3CC4CCC3[C@@H]4N)ccc12 (stereo partly drawn) [Example 351, (7R)-2-{2-[1-(Cyclopropylmethyl)-6-(4-methanesulfonylpiperidin-1-yl)-1H-indol-2-yl]-3-methylpyrazolo[1,5-a]pyridine-6-carbonyl}-2-azabicyclo[2.2.1]heptan-7-amine]
20 | 150 | Cc1c(-c2cc3ccc(N4CCC(N(C)S(C)(=O)=O)CC4)cc3n2CC2CC2)nn2cc(C(=O)N3C[C@H](N)C[C@@H](F)C3)ccc12 [Example 354, N-[1-(2-{6-[(3R,5R)-3-Amino-5-fluoropiperidine-1-carbonyl]-3-methylpyrazolo[1,5-a]pyridin-2-yl}-1-(cyclopropylmethyl)-1H-indol-6-yl)piperidin-4-yl]-N-methylmethanesulfonamide]
21 | 20 | Cc1c(-c2cc3ccc(N4CCC(C(=O)N5CCCC5)CC4)cc3n2CC2CC2)nn2cc(C(=O)N3C[C@H](N)C[C@@H](F)C3)ccc12 [Example 355, (3R,5R)-1-{2-[1-(Cyclopropylmethyl)-6-[4-(pyrrolidine-1-carbonyl)piperidin-1-yl]-1H-indol-2-yl]-3-methylpyrazolo[1,5-a]pyridine-6-carbonyl}-5-fluoropiperidin-3-amine]
22 | 50 | Cc1c(-c2cc3ccc(N4CCC(N5CCOC5=O)CC4)cc3n2CC2CC2)nn2cc(C(=O)N3C[C@H](N)C[C@@H](F)C3)ccc12 [Example 357, 3-[1-(2-{6-[(3R,5R)-3-Amino-5-fluoropiperidine-1-carbonyl]-3-methylpyrazolo[1,5-a]pyridin-2-yl}-1-(cyclopropylmethyl)-1H-indol-6-yl)piperidin-4-yl]-l,3-oxazolidin-2-one]
23 | 240 | CC(=O)N(C)C1CCN(c2ccc3cc(-c4nn5cc(C(=O)N6CCC[C@@H](N)C6)ccc5c4C)n(CC4CC4)c3c2)CC1 [Example 359, N-[1-(2-{6-[(3R)-3-Aminopiperidine-1-carbonyl]-3-methylpyrazolo[1,5-a]pyridin-2-yl}-1-(cyclopropylmethyl)-1H-indol-6-yl)piperidin-4-yl]-N-methyl acetamide]
24 | 300 | Cc1c(-c2cc3ccc(N4CCC(C(=O)N5CCCC5)CC4)cc3n2CC2CC2)nn2cc(C(=O)N3CCC[C@@H](N)C3)ccc12 [Example 361, (3R)-1-{2-[1-(Cyclopropylmethyl)-6-[4-(pyrrolidine-1-carbonyl)piperidin-1-yl]-1H-indol-2-yl]-3-methylpyrazolo[1,5-a]pyridine-6-carbonyl}piperidin-3-amine]
